In article PMC9944328 (Nature Communications, 2023):
Read-outs that look alike come from different tables or passages of the source.

Test system: SSTR2 mutants
Assay: NanoBiT β-arrestin 1 recruitment assay, HEK293 (SSTR2 mutants);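 as to Best-fit values Bottom: percent of maximal wild-type response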;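 as to Best-fit values Span: percent of maximal wild-type response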;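 as to Best-fit values Top: percent of maximal wild-type response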;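 as to Bottom (best-fit): percent of maximal wild-type response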;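 as to Span (best-fit): percent of maximal wild-type response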;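 as to Top (best-fit value): percent of maximal wild-type response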;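 as to Top (best-fit): percent of maximal wild-type response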;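 as to Top: percent of maximal wild-type response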
Format: cell-based, human
Parameters: Bottom / Span / Bottom (best-fit) / Span (best-fit) / Best-fit values Bottom / Best-fit values Span / Bottom (best-fit value) / Span (best-fit value):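 percent of maximal wild-type response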
Description: The NanoBiT β-arrestin 1 recruitment assays were carried out according to the method described previously. […] Human full-length SSTR wild-type and mutant vectors were C-terminally fused with a 15-amino acid flexible linker and the small fragment (SmBiT). HEK293 cells were seeded into six-well microplates at a density of 1.0 × 10^6 cells/well and cultured for 24 h at 37 °C with 5% CO2. After that, cells were co-transfected with pcDNA3.1+ vectors encoding SSTR wild-type or mutants and human β-arrestin 1. After transfecting for 24 h, the transfected cells were suspended and seeded into white 96-well plates, and then cultured at 37 °C overnight. After that the medium in each well was exchanged for 90 μl of 0.01% bovine serum albumin containing 20 μl of 50 μM coelenterazine h (Carbosynth) diluted in the HBSS assay buffer and incubated for 40 min at room temperature. Then, ligands diluted in the assay buffer was added to each well and the luminescence intensity was measured using the Synergy H1 microplate reader and detected at room temperature in a time period. All data presented are means of at least three independent experiments.

[1] = D295A-1 (run 1), β-arrestin1 recruitment
[2] = D295A-2 (run 2), β-arrestin1 recruitment
[3] = D295A-3 (run 3), β-arrestin1 recruitment
[4] = L290A-1 (run 1), β-arrestin1 recruitment
[5] = L290A-2 (run 2), β-arrestin1 recruitment
[6] = L290A-3 (run 3), β-arrestin1 recruitment
[7] = S279A-1 (run 1), β-arrestin1 recruitment
[8] = S279A-2 (run 2), β-arrestin1 recruitment
[9] = S279A-3 (run 3), β-arrestin1 recruitment
[10] = Y302A-1 (run 1), β-arrestin1 recruitment
[11] = Y302A-2 (run 2), β-arrestin1 recruitment
[12] = Y302A-3 (run 3), β-arrestin1 recruitment
[13] = best-fit value, I195A-1 (run 1)
[14] = best-fit value, I195A-2 (run 2)
[15] = best-fit value, I195A-3 (run 3)

C[C@@H](O)[C@@H]1NC(=O)[C@H](CCCCN)NC(=O)[C@@H](Cc2c[nH]c3ccccc23)NC(=O)[C@H](Cc2ccccc2)NC(=O)[C@@H](NC(=O)[C@H](N)Cc2ccccc2)CSSC[C@@H](C(=O)N[C@H](CO)[C@@H](C)O)NC1=O [octreotide]
Bottom (best-fit value) [1]: 0.2059
LogEC50 (best-fit value) [1]: -6.975
Span (best-fit value) [1]: 90.14
Top (best-fit value) [1]: 90.34
EC50 (D295A-1 (run 1), β-arrestin1 recruitment, read-out: EC50 (best-fit value)): 106 nM
Bottom (best-fit value) [2]: -0.553
LogEC50 (best-fit value) [2]: -6.954
Span (best-fit value) [2]: 94.35
Top (best-fit value) [2]: 93.8
EC50 (D295A-2 (run 2), β-arrestin1 recruitment, read-out: EC50 (best-fit value)): 111 nM
Bottom (best-fit value) [3]: -6.587
LogEC50 (best-fit value) [3]: -6.025
Span (best-fit value) [3]: 251.8
Top (best-fit value) [3]: 245.2
EC50 (D295A-3 (run 3), β-arrestin1 recruitment, read-out: EC50 (best-fit value)): 944 nM
Bottom (best-fit) (F127A-1): -1.151
LogEC50 (best-fit) (F127A-1): -8.337
Span (best-fit) (F127A-1): 58.78
Top (best-fit) (F127A-1): 57.63
EC50 (F127A-1, read-out: EC50 (best-fit)): 4.6 nM
Bottom (best-fit) (F127A-2): -1.134
LogEC50 (best-fit) (F127A-2): -8.363
Span (best-fit) (F127A-2): 52.24
Top (best-fit) (F127A-2): 51.1
EC50 (F127A-2, read-out: EC50 (best-fit)): 4.33 nM
Bottom (best-fit) (F127A-3): -1.083
LogEC50 (best-fit) (F127A-3): -8.391
Span (best-fit) (F127A-3): 50.21
Top (best-fit) (F127A-3): 49.13
EC50 (F127A-3, read-out: EC50 (best-fit)): 4.07 nM
Bottom (best-fit) (F208A-1): -1.787
LogEC50 (best-fit) (F208A-1): -6.773
Span (best-fit) (F208A-1): 82.48
Top (best-fit) (F208A-1): 80.69
EC50 (F208A-1, read-out: EC50 (best-fit)): 169 nM
Bottom (best-fit) (F208A-2): -1.774
LogEC50 (best-fit) (F208A-2): -6.823
Span (best-fit) (F208A-2): 91.81
Top (best-fit) (F208A-2): 90.03
EC50 (F208A-2, read-out: EC50 (best-fit)): 150 nM
Bottom (best-fit) (F208A-3): -1.249
LogEC50 (best-fit) (F208A-3): -6.77
Span (best-fit) (F208A-3): 80.71
Top (best-fit) (F208A-3): 79.46
EC50 (F208A-3, read-out: EC50 (best-fit)): 170 nM
β-arrestin recruitment of mutant (F294(7.35)A): nearly impaired the octreotide-induced β-arrestin recruitment
β-arrestin signal of mutants (I284ECL3A and K291(7.32)A): reduced potency and efficacy of octreotide induced β-arrestin signal
Bottom (best-fit value) [4]: 5.848
LogEC50 (best-fit value) [4]: -8.723
Span (best-fit value) [4]: 78.77
Top (best-fit value) [4]: 84.62
EC50 (L290A-1 (run 1), β-arrestin1 recruitment, read-out: EC50 (best-fit value)): 1.89 nM
Bottom (best-fit value) [5]: 5.656
LogEC50 (best-fit value) [5]: -8.77
Span (best-fit value) [5]: 81.03
Top (best-fit value) [5]: 86.69
EC50 (L290A-2 (run 2), β-arrestin1 recruitment, read-out: EC50 (best-fit value)): 1.7 nM
Bottom (best-fit value) [6]: -1.116
LogEC50 (best-fit value) [6]: -8.203
Span (best-fit value) [6]: 76.53
Top (best-fit value) [6]: 75.41
EC50 (L290A-3 (run 3), β-arrestin1 recruitment, read-out: EC50 (best-fit value)): 6.27 nM
β-arrestin recruitment of mutant (N276(6.55)A): nearly abolished the recruitment of β-arrestin
Best-fit values Bottom (P220A-1): 0.1149
Best-fit values LogEC50 (P220A-1): -6.553
Best-fit values Span (P220A-1): 34.49
Best-fit values Top (P220A-1): 34.6
EC50 (P220A-1, read-out: Best-fit values EC50): 280 nM
Best-fit values Bottom (P220A-2): -0.6221
Best-fit values LogEC50 (P220A-2): -7.989
Best-fit values Span (P220A-2): 58.87
Best-fit values Top (P220A-2): 58.25
EC50 (P220A-2, read-out: Best-fit values EC50): 10.3 nM
Best-fit values Bottom (P220A-3): -0.6988
Best-fit values LogEC50 (P220A-3): -8.034
Best-fit values Span (P220A-3): 50.86
Best-fit values Top (P220A-3): 50.16
EC50 (P220A-3, read-out: Best-fit values EC50): 9.24 nM
Bottom (best-fit value) [7]: -1.308
LogEC50 (best-fit value) [7]: -8.149
Span (best-fit value) [7]: 94.92
Top (best-fit value) [7]: 93.61
EC50 (S279A-1 (run 1), β-arrestin1 recruitment, read-out: EC50 (best-fit value)): 7.09 nM
Bottom (best-fit value) [8]: -2.227
Span (best-fit value) [8]: 74.73
Top (best-fit value) [8]: 72.5
EC50 (S279A-2 (run 2), β-arrestin1 recruitment, read-out: EC50 (best-fit value)): 21.4 nM
Bottom (best-fit value) [9]: 0.9887
LogEC50 (best-fit value) [9]: -6.436
Span (best-fit value) [9]: 131.8
Top (best-fit value) [9]: 132.8
EC50 (S279A-3 (run 3), β-arrestin1 recruitment, read-out: EC50 (best-fit value)): 366 nM
Best-fit values Bottom (W269A-1): 0.3902
Best-fit values LogEC50 (W269A-1): -7.096
Best-fit values Span (W269A-1): 27.42
Best-fit values Top (W269A-1): 27.81
EC50 (W269A-1, read-out: Best-fit values EC50): 80.1 nM
Best-fit values LogEC50 (W269A-2): -7.281
Best-fit values Span (W269A-2): 32.61
Best-fit values Top (W269A-2): 36.93
EC50 (W269A-2, read-out: Best-fit values EC50): 52.3 nM
Best-fit values Bottom (W269A-3): 3.687
Best-fit values LogEC50 (W269A-3): -7.475
Best-fit values Span (W269A-3): 31.64
Best-fit values Top (W269A-3): 35.33
EC50 (W269A-3, read-out: Best-fit values EC50): 33.5 nM
Bottom (best-fit) (Y205A-1): -3.221
LogEC50 (best-fit) (Y205A-1): -7.699
Span (best-fit) (Y205A-1): 139.2
Top (best-fit) (Y205A-1): 135.9
EC50 (Y205A-1, read-out: EC50 (best-fit)): 20 nM
Bottom (best-fit) (Y205A-2): -1.321
LogEC50 (best-fit) (Y205A-2): -8.57
Span (best-fit) (Y205A-2): 93.02
Top (best-fit) (Y205A-2): 91.7
EC50 (Y205A-2, read-out: EC50 (best-fit)): 2.69 nM
Bottom (best-fit) (Y205A-3): 0.3514
LogEC50 (best-fit) (Y205A-3): -7.837
Span (best-fit) (Y205A-3): 328.7
Top (best-fit) (Y205A-3): 329.1
EC50 (Y205A-3, read-out: EC50 (best-fit)): 14.5 nM
β-arrestin recruitment of mutant (Y302(7.43)A): slightly impaired
Bottom (best-fit value) [10]: -0.3068
LogEC50 (best-fit value) [10]: -8.733
Span (best-fit value) [10]: 87.43
Top (best-fit value) [10]: 87.12
EC50 (Y302A-1 (run 1), β-arrestin1 recruitment, read-out: EC50 (best-fit value)): 1.85 nM
Bottom (best-fit value) [11]: 0.826
LogEC50 (best-fit value) [11]: -8.763
Span (best-fit value) [11]: 86.05
Top (best-fit value) [11]: 86.87
EC50 (Y302A-2 (run 2), β-arrestin1 recruitment, read-out: EC50 (best-fit value)): 1.72 nM
Bottom (best-fit value) [12]: 1.139
LogEC50 (best-fit value) [12]: -8.739
Span (best-fit value) [12]: 85.71
Top (best-fit value) [12]: 86.85
EC50 (Y302A-3 (run 3), β-arrestin1 recruitment, read-out: EC50 (best-fit value)): 1.82 nM
Bottom [13]: -0.3262
LogEC50 [13]: -7.224
Span [13]: 58.86
Top [13]: 58.54
EC50 (best-fit value, I195A-1 (run 1), read-out: EC50): 59.8 nM
Bottom [14]: -0.9813
LogEC50 [14]: -7.334
Span [14]: 61.03
Top [14]: 60.04
EC50 (best-fit value, I195A-2 (run 2), read-out: EC50): 46.3 nM
Bottom [15]: -0.6923
LogEC50 [15]: -7.245
Span [15]: 59.4
Top [15]: 58.71
EC50 (best-fit value, I195A-3 (run 3), read-out: EC50): 56.9 nM
Bottom (best-fit value, L99A-1 (run 1)): 17.86
LogEC50 (best-fit value, L99A-1 (run 1)): -6.902
Span (best-fit value, L99A-1 (run 1)): 95.94
Top (best-fit value, L99A-1 (run 1)): 113.8
Bottom (best-fit value, L99A-2 (run 2)): -2.171
LogEC50 (best-fit value, L99A-2 (run 2)): -7.606
Span (best-fit value, L99A-2 (run 2)): 48.46
Top (best-fit value, L99A-2 (run 2)): 46.29
EC50 (best-fit value, L99A-2 (run 2), read-out: EC50): 24.8 nM
Bottom (best-fit value, L99A-3 (run 3)): -2.89
